Test results taken from patent US9102623B2, “Pyridinecarboxamides, useful-plant-protecting composition comprising them and processes for their preparation and their use” (Bayer Cropscience AG, priority 2007, dated 2015).

What was measured:
[1] = system: corn; test: Post-emergence safener action in corn with the herbicide tembotrione; assay type: in vivo; conditions: greenhouse, visual scoring of damage
Excerpt: (§1) The damage to the plants is scored visually using a scale of 0-100%, in comparison to control plants:
(§2) 0%=no noticeable effect compared to the untreated plant
(§3) 100%=the treated plants dies.
(§4) Seeds or rhizome pieces of monocotyledonous and dicotyledonous harmful plants and crop plants are placed in sandy loam soil in plastic pots, covered with soil and cultivated in the greenhouse under good growth conditions. Alternatively, harmful plants encountered in paddy rice cultivation are cultivated in pots in which the surface of the soil is covered by up to 2 cm of water. Three weeks after sowing, the test plants are treated at the three-leaf stage. The herbicide/safener active compound combinations according to the invention, formulated as emulsion concentrates, and in parallel tests the individual active compounds formulated in a corresponding manner, are sprayed at various dosages at a water application rate of […] (converted) onto the green parts of the plants, and, after the test plants were left to stand in the greenhouse for about 2 to 3 weeks under optimum growth conditions, the effect of the preparations is scored visually in comparison to untreated controls. In the case of rice or harmful plants encountered in the cultivation of rice, the active compounds are also added directly to the irrigation water (application analogously to the so-called granule application) or sprayed onto the plants and into the irrigation water. […]

[2] = system: barley; test: Post-emergence safener action in barley with the herbicide mesosulfuron-methyl; assay type: in vivo; conditions: greenhouse, visual scoring of damage
Excerpt: as §1, §2, §3, §4

Row | Structure (SMILES) | safener action for the herbicide tembotrione [1] | safener action for the herbicide mesosulfuron-methyl [2]
1 | CC(C)NC(=O)c1ccc(C(F)(F)F)[nH]c1=O [Compound 4] | good safener action | –
2 | CCCCNC(=O)c1ccc(C(F)(F)F)[nH]c1=O [Compound 6] | good safener action | –
3 | CN(C)C(=O)c1ccc(C(F)(F)F)[nH]c1=O [Compound 9] | good safener action | good safener action
4 | CCN(C)C(=O)c1ccc(C(F)(F)F)[nH]c1=O [Compound 10] | good safener action | good safener action
5 | CCN(CC)C(=O)c1ccc(C(F)(F)F)[nH]c1=O [Compound 14] | good safener action | good safener action
6 | CC(C)(C)CNC(=O)c1ccc(C(F)(F)F)[nH]c1=O [Compound 24] | good safener action | –
7 | CC(C)CCNC(=O)c1ccc(C(F)(F)F)[nH]c1=O [Compound 32] | good safener action | –
8 | C=CCNC(=O)c1ccc(C(F)(F)F)[nH]c1=O [Compound 34] | good safener action | good safener action
9 | C=CCN(CC=C)C(=O)c1ccc(C(F)(F)F)[nH]c1=O [Compound 36] | good safener action | good safener action
10 | CCCC(C)NC(=O)c1ccc(C(F)(F)F)[nH]c1=O (stereo not shown) [Compound 43] | good safener action | –
11 | CCC(CC)NC(=O)c1ccc(C(F)(F)F)[nH]c1=O [Compound 51] | good safener action | –
12 | COCC(C)NC(=O)c1ccc(C(F)(F)F)[nH]c1=O (stereo not shown) [Compound 64] | good safener action | good safener action
13 | COCCCNC(=O)c1ccc(C(F)(F)F)[nH]c1=O [Compound 66] | good safener action | good safener action
14 | COC(=O)CNC(=O)c1ccc(C(F)(F)F)[nH]c1=O [Compound 71] | good safener action | –
15 | COC(=O)CCNC(=O)c1ccc(C(F)(F)F)[nH]c1=O [Compound 75] | good safener action | –
16 | CCONC(=O)c1ccc(C(F)(F)F)[nH]c1=O [Compound 79] | good safener action | good safener action
17 | O=C(NCc1ccc(Cl)nc1)c1ccc(C(F)(F)F)[nH]c1=O [Compound 95] | good safener action | –
18 | CN(C)/C=N/C(=O)c1ccc(C(F)(F)F)[nH]c1=O [Compound 105, N-[(Dimethylamino)methylene]-2-oxo-6-(trifluoromethyl)-1,2-dihydropyridine-3-carboxamide] | good safener action | good safener action
19 | NC(=O)c1ccc(C(F)(F)Cl)[nH]c1=O [Compound 114] | good safener action | good safener action

Row | Structure (SMILES) | safener action for the herbicide tembotrione [1] | safener action for the herbicide mesosulfuron-methyl [2]
20 | CC(C)NC(=O)c1ccc(C(F)(F)Cl)[nH]c1=O [Compound 118] | good safener action | –
21 | O=C(NCC(F)(F)F)c1ccc(C(F)(F)Cl)[nH]c1=O [Compound 140] | good safener action | good safener action
22 | CC(C)CCNC(=O)c1ccc(C(F)(F)Cl)[nH]c1=O [Compound 146] | good safener action | good safener action
23 | C=CCNC(=O)c1ccc(C(F)(F)Cl)[nH]c1=O [Compound 148] | good safener action | good safener action
24 | C#CCNC(=O)c1ccc(C(F)(F)Cl)[nH]c1=O [Compound 153] | good safener action | good safener action
25 | CC(NC(=O)c1ccc(C(F)(F)Cl)[nH]c1=O)c1ccccc1 (stereo not shown) [Compound 210] | good safener action | –
26 | CNC(=O)c1ccc(C(F)(F)C(F)(F)F)[nH]c1=O [Compound 342] | – | good safener action
27 | CCCNC(=O)c1ccc(C(F)(F)C(F)(F)F)[nH]c1=O [Compound 344] | – | good safener action
28 | O=C(NC1CC1)c1ccc(C(F)(F)C(F)(F)F)[nH]c1=O [Compound 346] | – | good safener action
29 | CCC(C)NC(=O)c1ccc(C(F)(F)C(F)(F)F)[nH]c1=O (stereo not shown) [Compound 382, N-(1-Methylpropyl)-2-oxo-6-(pentafluoroethyl)-1,2-dihydropyridine-3-carboxamide] | – | good safener action
30 | CCCC(C)NC(=O)c1ccc(C(F)(F)C(F)(F)F)[nH]c1=O (stereo not shown) [Compound 384] | – | good safener action
31 | COCCNC(=O)c1ccc(C(F)(F)C(F)(F)F)[nH]c1=O [Compound 398] | – | good safener action
32 | COCC(C)NC(=O)c1ccc(C(F)(F)C(F)(F)F)[nH]c1=O (stereo not shown) [Compound 405] | – | good safener action
33 | COCCCNC(=O)c1ccc(C(F)(F)C(F)(F)F)[nH]c1=O [Compound 407] | – | good safener action
34 | NC(=O)c1cc(Cl)c(C(F)(F)F)[nH]c1=O [Compound 455, 5-Chloro-2-oxo-6-(trifluoromethyl)-1,2-dihydropyridine-3-carboxamide] | – | good safener action
35 | CNC(=O)c1cc(Cl)c(C(F)(F)F)[nH]c1=O [Compound 456] | good safener action | –
36 | CCNC(=O)c1cc(Cl)c(C(F)(F)Cl)[nH]c1=O [Compound 571] | – | good safener action
37 | CNC(=O)c1cc(Br)c(C(F)(F)F)[nH]c1=O [Compound 910] | – | good safener action
38 | CCC(C)NC(=O)c1cc(Br)c(C(F)(F)F)[nH]c1=O (stereo not shown) [Compound 950] | – | good safener action

Row | Structure (SMILES) | safener action for the herbicide tembotrione [1] | safener action for the herbicide mesosulfuron-methyl [2]
39 | NC(=O)c1cc(Br)c(C(F)(F)Cl)[nH]c1=O [Compound 1023] | – | good safener action
40 | CCCCNC(=O)c1cc(Br)c(C(F)(F)Cl)[nH]c1=O [Compound 1029] | – | good safener action
41 | O=C(NC1CCC1)c1cc(Br)c(C(F)(F)Cl)[nH]c1=O [Compound 1030] | – | good safener action
42 | CCNC(=O)c1cc(Br)c(C(F)F)[nH]c1=O [Compound 1139] | good safener action | –
43 | COCC(C)NC(=O)c1cc(Br)c(C(F)F)[nH]c1=O (stereo not shown) [Compound 1201, 5-Bromo-6-(difluoromethyl)-N-(2-methoxy-1-methylethyl)-2-oxo-1,2-dihydropyridine-3-carboxamide] | – | good safener action
44 | CC(C)NC(=O)c1ccc(C(F)(F)C(F)F)[nH]c1=O [Compound 1371] | good safener action | –
45 | NC(=O)c1ccc(C(F)(F)C(F)(F)Cl)[nH]c1=O [Compound 1481, 6-(2-Chloro-1,1,2,2-tetrafluoroethyl)-2-oxo-1,2-dihydropyridine-3-carboxamide] | – | good safener action
46 | CC(C)NC(=O)c1ccc(C(F)(F)C(F)(F)Cl)[nH]c1=O [Compound 1485] | good safener action | –
47 | CCCCNC(=O)c1ccc(C(F)(F)C(F)(F)Cl)[nH]c1=O [Compound 1487] | – | good safener action
48 | O=C(NC1CCC1)c1ccc(C(F)(F)C(F)(F)Cl)[nH]c1=O [Compound 1488] | good safener action | –
49 | CNC(=O)c1ccc(C(F)(F)C(F)(F)C(F)(F)F)[nH]c1=O [Compound 1596] | good safener action | –
50 | CN(C)C(=O)c1ccc(C(F)(F)C(F)(F)C(F)(F)F)[nH]c1=O [Compound 1604] | good safener action | –
51 | CC(C)(C)CNC(=O)c1ccc(C(F)(F)C(F)(F)C(F)(F)F)[nH]c1=O [Compound 1619] | good safener action | –
52 | C=CCNC(=O)c1ccc(C(F)(F)C(F)(F)C(F)(F)F)[nH]c1=O [Compound 1629] | good safener action | –
53 | CCCC(C)NC(=O)c1ccc(C(F)(F)C(F)(F)C(F)(F)F)[nH]c1=O (stereo not shown) [Compound 1638] | good safener action | –
54 | CCC(CC)NC(=O)c1ccc(C(F)(F)C(F)(F)C(F)(F)F)[nH]c1=O [Compound 1646] | good safener action | –
55 | O=C(NC1CCC1)c1cc(Br)c(C(F)(F)C(F)(F)C(F)(F)F)[nH]c1=O [Compound 1758] | good safener action | –
56 | CCC(CC)NC(=O)c1cc(I)c(C(F)(F)Cl)[nH]c1=O [Compound 1907, 6-[Chloro(difluoro)methyl]-N-(1-ethylpropyl)-5-iodo-2-oxo-1,2-dihydropyridine-3-carboxamide] | – | good safener action
